One series has as its system RD cells. The conditions noted are these: human.
A further series can be described thus: in vitro. Conditions: human.
A further series has as its system EV-D68. The experiment in a line: microbe, parasite or virus in culture. The format is cell-based, enterovirus D68 (EV-D68). Conditions: Enterovirus D, EVD68, RD.
For another series, the system named is CVB3 Nancy virus. The experiment in a line: microbe, parasite or virus in culture. The format is cell-based, coxsackievirus B3 (CVB3). The conditions noted are these: Enterovirus B, CVB3, Vero, read-out: EC50, Anti-CVB3 in Vero cells.
In the next series the test system is EV-A71. In words: microbe, parasite or virus in culture. Type of series: cell-based, enterovirus A71 (EV-A71). The conditions noted are these: Enterovirus A, EVA71, RD.
In a further series the test system is EV-D68, EV-A71, and CVB3. In words: organism not typed. Type of series: cell-based. Conditions: for EC50: RD, read-out: EC50 values range against all EV-D68 and EV-A71 strains tested.
The next series relates to Vero cells. Conditions: African green monkey.
Another series has as its system EV-D68 US/MO/14-18947. In words: microbe, parasite or virus in culture. Type of series: cell-based, enterovirus D68 (EV-D68). Conditions: for EC50: Enterovirus D, EVD68, read-out: EC50, viral replication in neuronal cells (immunofluorescence, anti-VP1).
Where [1] appears, read: CC50, in RD cells (Anti-EV-A71).
The mark [2] stands for this setting: read-out: EC50, Anti-EV-D68 US/KY/14-18953 in RD cells.
The mark [3] stands for this setting: read-out: EC50, Anti-EV-A71 Tainan/4643/1998 in RD cells.
The mark [4] stands for this setting: read-out: EC50, EV-D68 US/IL/14-18952 (Clade B2).
Where [5] appears, read: read-out: EC50, EV-D68 US/IL/14-18956 (Clade B2).
Where [6] appears, read: read-out: EC50, EV-D68 US/KY/14-18953 (Clade D).
Setting [7] is: read-out: EC50, EV-D68 US/MO/14-18947 (Clade B1).
[8] abbreviates: read-out: EC50, EV-D68 US/MO/14-18949 (Clade B1).
Setting [9] is: read-out: EC50, EV-A71 Tainan/4643/1998.
Where [10] appears, read: read-out: EC50, EV-A71 USA/CT/2016-19519.

Like-named read-outs stand apart in the source and are kept apart here.

In the case of `CNCCNC(=O)c1cc(C(C)C)nc2c1cnn2C(C)C` [Compound 10d, N-[2-(methylamino)ethyl]-1,6-bis(propan-2-yl)-1H-pyrazolo[3,4-b]pyridine-4-carboxamide], the CC50 in the series with RD cells and in “in vitro” (setting [1]) was more than 100000 nM in each case. For the same molecule, the EC50 is 400 nM in the series on EV-D68 (setting [2]), 300 nM in the series on CVB3 Nancy virus and 100 nM in the series on EV-A71 (setting [3]).

For `CCn1ncc2c(C(=O)NCCN(C)C)cc(C3CC3)nc21` [Compound 16, 6-cyclopropyl-N-[2-(dimethylamino)ethyl]-1-ethyl-1H-pyrazolo[3,4-b]pyridine-4-carboxamide], in the series on EV-D68, EV-A71, and CVB3, the “EC50 values in words (summary across viruses)” value is “single-digit micromolar range”. Also, the EC50 worked out at 1700 nM in the series with EV-D68 (setting [2]), 1800 nM with CVB3 Nancy virus and 1200 nM with EV-A71 (setting [3]). The molecule further returned a CC50 in the series on Vero cells of more than 300000 nM.

On to `Cc1cc(CCCOc2c(C)cc(-c3noc(C(F)(F)F)n3)cc2C)on1` [pleconaril, reference compound], for which the “viral replication (VP1 fluorescence signal)” value in the series on EV-D68 US/MO/14-18947 (at 50 μM) was “completely abolished viral replication”.

`CC(C)c1cc(C(=O)NCCO)c2cnn(C(C)C)c2n1` [Compound 10b, N-(2-hydroxyethyl)-1,6-bis(propan-2-yl)-1H-pyrazolo[3,4-b]pyridine-4-carboxamide] gave a CC50 in the series on RD cells of more than 100000 nM.

With `CNCCNC(=O)c1cc(C)nc2c1cnn2C(C)C` [Compound 12d, 6-methyl-N-(methylamino)ethyl-1-(propan-2-yl)-1H-pyrazolo[3,4-b]pyridine-4-carboxamide], the CC50 in the series on RD cells, in the series “in vitro” (setting [1]) and in the series on Vero cells was more than 300000 nM in each case. Also, the values for the EC50 with EV-D68 (setting [2]), in the series with CVB3 Nancy virus and in the series with EV-A71 (setting [3]) were 2300 nM, 1400 nM and 500 nM, respectively.

For the molecule `Cc1cc(C(=O)NC2CN(C)C2)c2cnn(C(C)C)c2n1` [Compound 12c, 6-methyl-N-(1-methylazetidin-3-yl)-1-(propan-2-yl)-1H-pyrazolo[3,4-b]pyridine-4-carboxamide], the CC50 in the series with RD cells, in “in vitro” (setting [1]) and in the series on Vero cells was more than 300000 nM in each case. Further, the EC50 with EV-D68 (setting [2]) was determined as 11300 nM; in the series on CVB3 Nancy virus it was 3800 nM; in the series with EV-A71 (setting [3]) it was 7300 nM.

`CN(C)CCNC(=O)c1cc(C2CC2)nc2c1cnn2C` [Compound 17, 6-cyclopropyl-N-[2-(dimethylamino)ethyl]-1-methyl-1H-pyrazolo[3,4-b]pyridine-4-carboxamide] had a CC50 in the series on RD cells of more than 300000 nM.

Regarding `Cc1cc(C(=O)NCCN)c2cnn(C(C)C)c2n1` [Compound 12e, N-(2-aminoethyl)-6-methyl-1-(propan-2-yl)-1H-pyrazolo[3,4-b]pyridine-4-carboxamide], the CC50 in the series with RD cells, in “in vitro” (setting [1]) and in the series with Vero cells was more than 300000 nM each time. The EC50 amounted to 4700 nM with EV-D68 (setting [2]), 3800 nM in the series on CVB3 Nancy virus and 700 nM in the series with EV-A71 (setting [3]).

`CC(C)c1cc(C(=O)NCCN(C)C)c2cnn(C(C)C)c2n1` [Compound 10a, N-[2-(dimethylamino)ethyl]-1,6-bis(propan-2-yl)-1H-pyrazolo[3,4-b]pyridine-4-carboxamide]: the EC50 in the series on EV-D68, EV-A71, and CVB3 was 60 to 300 nM; in the series with EV-D68 (setting [2]) it was 100 nM; in the series with EV-D68 (setting [4]), 90 nM; with EV-D68 (setting [5]), 70 nM; in the series on EV-D68 (setting [6]), 100 nM; in the series on EV-D68 (setting [7]) it was 70 nM. Further, the EC50 came out at 80 nM with EV-D68 (setting [8]); 40 nM with CVB3 Nancy virus; 100 nM in the series on EV-A71 (setting [3]); 200 nM with EV-A71 (read-out: EC50, EV-A71 A71 MP4); 200 nM with EV-A71 (setting [9]); 60 nM in the series with EV-A71 (setting [10]). Further, in the series with EV-D68 US/MO/14-18947, the EC50 stood at 30 nM. In the series on Vero cells, this molecule yielded a CC50 of more than 300000 nM.

In the series with RD cells, `CCn1ncc2c(C(=O)NCCN(C)C)cc(C)nc21` [Compound 15a, N-[2-(dimethylamino)ethyl]-1-ethyl-6-methyl-1H-pyrazolo[3,4-b]pyridine-4-carboxamide] registered a CC50 of more than 300000 nM. Besides, the EC50 in the series with EV-D68 (setting [2]) was 18300 nM.

As for `Cc1cc(C(=O)NC2CCN(C)C2)c2cnn(C(C)C)c2n1` (stereo not drawn) [Compound 12b, 6-methyl-N-(1-methylpyrrolidin-3-yl)-1-(propan-2-yl)-1H-pyrazolo[3,4-b]pyridine-4-carboxamide], the CC50 in the series on RD cells, in “in vitro” (setting [1]) and in the series with Vero cells was more than 300000 nM each time. Moreover, the EC50 in the series on EV-D68 (setting [2]) was 1800 nM; with CVB3 Nancy virus it was 800 nM; with EV-A71 (setting [3]), 500 nM.

Turning to `Cc1cc(C(=O)NCCN(C)C)c2cnn(C(C)C)c2n1` [Compound 12a, N-[2-(dimethylamino)ethyl]-6-methyl-1-(propan-2-yl)-1H-pyrazolo[3,4-b]pyridine-4-carboxamide], the EC50 with EV-D68 (setting [2]) came out at 400 nM; in the series on CVB3 Nancy virus, 200 nM; in the series on EV-A71 (setting [3]), 100 nM. In addition, the CC50 in the series on Vero cells is more than 300000 nM.

As for `CC(CN(C)C)NC(=O)c1cc(C2CC2)nc2c1cnn2C(C)C` (stereo not drawn) [Compound 7f, 6-cyclopropyl-N-[1-(dimethylamino)propan-2-yl]-1-(propan-2-yl)-1H-pyrazolo[3,4-b]pyridine-4-carboxamide], the results for the CC50 in “in vitro” (setting [1]) and with Vero cells were 72600 nM and more than 300000 nM, respectively. Further, the results for the EC50 with EV-D68 (setting [2]), with CVB3 Nancy virus and in the series with EV-A71 (setting [3]) were 100 nM, 40 nM and 100 nM, respectively.

Take `CNCCNC(=O)c1cc(C2CC2)nc2c1cnn2C(C)C` [Compound 7h, 6-cyclopropyl-N-[2-(methylamino)ethyl]-1-(propan-2-yl)-1H-pyrazolo[3,4-b]pyridine-4-carboxamide]: the EC50 is 60 to 300 nM in the series with EV-D68, EV-A71, and CVB3; 200 nM with EV-D68 (setting [2]); 200 nM with EV-D68 (setting [4]); 200 nM in the series on EV-D68 (setting [5]); 200 nM in the series with EV-D68 (setting [6]); 200 nM with EV-D68 (setting [7]). The EC50 is 200 nM with EV-D68 (setting [8]); 200 nM in the series with CVB3 Nancy virus; 200 nM in the series with EV-A71 (setting [3]); 300 nM in the series with EV-A71 (read-out: EC50, EV-A71 A71 MP4); 200 nM in the series with EV-A71 (setting [9]); 100 nM in the series on EV-A71 (setting [10]). Besides, the EC50 with EV-D68 US/MO/14-18947 turned out to be 70 nM. The CC50 in the series “in vitro” (CC50 (EV-A71 Tainan/4643/1998)), in the series “in vitro” (CC50 (EV-A71 USA/CT/2016-19519)), in the series “in vitro” (CC50 (EV-D68 US/IL/14-18952 row group)), in “in vitro” (CC50 (EV-D68 US/IL/14-18956 row group)), in “in vitro” (CC50 (EV-D68 US/KY/14-18953 row group)) and in the series “in vitro” (CC50 (EV-D68 US/MO/14-18947 row group)) was 236000 nM each time. In addition, the CC50 in the series “in vitro” (CC50 (EV-D68 US/MO/14-18949 row group)) is 236000 nM; in “in vitro” (setting [1]) it was 236000 nM; in “in vitro” (CC50, in RD cells (Anti-EV-D68)), 236000 nM; in the series with Vero cells it was more than 100000 nM.

`CC(CN(C)C)NC(=O)c1cc(C(C)C)nc2c1cnn2C(C)C` (stereo not drawn) [Compound 10c, N-[1-(dimethylamino)propan-2-yl]-1,6-bis(propan-2-yl)-1H-pyrazolo[3,4-b]pyridine-4-carboxamide]: the values for the CC50 in the series on RD cells and in the series “in vitro” (setting [1]) were more than 100000 nM and 70300 nM, respectively. For the same molecule, the EC50 turned out to be 100 nM with EV-D68 (setting [2]), 100 nM in the series with CVB3 Nancy virus and 1000 nM with EV-A71 (setting [3]).

The molecule `CCn1ncc2c(C(=O)NCCNC)cc(C)nc21` [Compound 15b, 1-ethyl-6-methyl-N-[2-(methylamino)ethyl]-1H-pyrazolo[3,4-b]pyridine-4-carboxamide] displayed a CC50 in the series on RD cells of more than 300000 nM. Moreover, the EC50 in the series with EV-D68 (setting [2]) was 58400 nM; with EV-A71 (setting [3]), more than 20000 nM.

(Values after US11834451B2 (priority 2021, dated 2023).)
